This is an account of results in ChEMBL document CHEMBL3352642, “6-Acetonyldihydrochelerythrine Is a Potent Inducer of Apoptosis in HCT116 and SW620 Colon Cancer Cells” (J Nat Prod, 2014).

A short description of assay [1]: (§1) Induction of cell death in human HCT116 cells at 2 times IC50 after 72 hrs by Guava ViaCount assay relative to control. The class given is functional, HCT-116.
Assay [2] has as its system SW-620. The experiment in a line: Cytotoxicity against human SW620 cells assessed as cell death at 2 times IC50 after 72 hrs by LDH release assay relative to control. Type of assay: functional. (LDH leaks from cells whose membrane has failed.)
Assay [3] deals with SW-620. The experiment in a line: Induction of apoptosis in human SW620 cells assessed as increase in p53 expression at 1 to 2 times IC50 after 72 hrs by immunoblot analysis relative to control. Type of assay: functional, cell-based.
Assay [4] is described as follows: (§2) Cytotoxicity against human HCT116 cells assessed as cell death at IC50 after 72 hrs by LDH release assay relative to control. The class given is functional, HCT-116.
Assay [5] relates to SW-620. Description: Induction of apoptosis in human SW620 cells assessed as reduction in ERK5 expression at 1 to 2 times IC50 after 72 hrs by immunoblot analysis relative to control. The class given is functional, cell-based. A general note: A western blot detects proteins with antibodies after separation by electrophoresis.
Assay [6] relates to HCT-116. The experiment in a line: Induction of apoptosis in human HCT116 cells assessed as reduction in Bcl-XL expression at 1 to 2 times IC50 after 72 hrs by immunoblot analysis relative to control. Type of assay: functional, cell-based.
Assay [7] has as its system HCT-116. The experiment in a line: Induction of apoptosis in human HCT116 cells assessed as reduction in XIAP expression at 1 to 2 times IC50 after 72 hrs by immunoblot analysis relative to control. Type of assay: functional, cell-based.
In assay [8] the test system is SW-620. Description: Induction of cell death in human SW620 cells at IC50 after 72 hrs by Guava ViaCount assay relative to control. The class given is functional.
The test system of assay [9] is SW-620. The experiment in a line: Induction of apoptosis in human SW620 cells assessed as reduction in Bcl-XL expression at 1 to 2 times IC50 after 72 hrs by immunoblot analysis relative to control. The class given is functional, cell-based.
Assay [10] concerns SW-620. The experiment in a line: Induction of apoptosis in human SW620 cells assessed as change in nuclear morphology at 2 times IC50 after 24 hrs by fluorescent microscopy relative to control. Type of assay: functional.
Assay [11] concerns HCT-116. Description: Induction of apoptosis in human HCT116 cells assessed as reduction in Akt expression at 1 to 2 times IC50 after 72 hrs by immunoblot analysis relative to control. Type of assay: functional, cell-based.
Assay [12] has as its system SW-620. The experiment in a line: Induction of apoptosis in human SW620 cells assessed as reduction in XIAP expression at 1 to 2 times IC50 after 72 hrs by immunoblot analysis relative to control. Type of assay: functional, cell-based.
A short description of assay [13]: Cytotoxicity against human HCT116 cells after 72 hrs by MTS assay. Type of assay: functional, cell-based. Conditions: HCT-116, 72 h.
Assay [14] is described as follows: (§3) Cytotoxicity against human HCT116 cells assessed as cell death at 2 times IC50 after 72 hrs by LDH release assay relative to control. Type of assay: functional, HCT-116.
The test system of assay [15] is SW-620. The experiment in a line: Cytotoxicity against human SW620 cells after 72 hrs by MTS assay. The class given is functional, cell-based. Conditions: SW-620, 72 h. In general terms: Tetrazolium assays rely on reduction of a dye to a coloured formazan, in cell work by metabolically active cells.
Assay [16] relates to HCT-116. The experiment in a line: Induction of apoptosis in human HCT116 cells assessed as reduction in ERK5 expression at 1 to 2 times IC50 after 72 hrs by immunoblot analysis relative to control. Type of assay: functional, cell-based.
Assay [17] relates to HCT-116. The experiment in a line: Induction of apoptosis in human HCT116 cells assessed as reduction in Bcl-2 expression at 1 to 2 times IC50 after 72 hrs by immunoblot analysis relative to control. The class given is functional, cell-based.
The subject of assay [18] is SW-620. The experiment in a line: Induction of apoptosis in human SW620 cells assessed as reduction in Akt expression at 1 to 2 times IC50 after 72 hrs by immunoblot analysis relative to control. Type of assay: functional, cell-based.
For assay [19], the system named is SW-620. The experiment in a line: Induction of apoptosis in human SW620 cells assessed as increase in PARP cleavage at 1 to 2 times IC50 after 72 hrs by immunoblot analysis relative to control. The class given is functional, cell-based.
For assay [20], the system named is HCT-116. Description: Induction of apoptosis in human HCT116 cells assessed as increase in PARP cleavage at 1 to 2 times IC50 after 72 hrs by immunoblot analysis relative to control. The class given is functional, cell-based.
Assay [21] deals with SW-620. Description: Induction of cell death in human SW620 cells at 2 times IC50 after 72 hrs by Guava ViaCount assay relative to control. The class given is functional.
The subject of assay [22] is HCT-116. The experiment in a line: Induction of apoptosis in human HCT116 cells assessed as change in nuclear morphology at 2 times IC50 after 24 hrs by fluorescent microscopy relative to control. Type of assay: functional.
Assay [23] has as its system SW-620. The experiment in a line: Induction of apoptosis in human SW620 cells assessed as change in nuclear morphology at IC50 after 24 hrs by fluorescent microscopy relative to control. The class given is functional.
Assay [24] in a line: (§4) Induction of cell death in human HCT116 cells at IC50 after 72 hrs by Guava ViaCount assay relative to control. Type of assay: functional, HCT-116.
The subject of assay [25] is HCT-116. The experiment in a line: Induction of apoptosis in human HCT116 cells assessed as increase in p53 expression at 1 to 2 times IC50 after 72 hrs by immunoblot analysis relative to control. The class given is functional, cell-based.
Assay [26] relates to HCT-116. The experiment in a line: Induction of apoptosis in human HCT116 cells assessed as change in nuclear morphology at IC50 after 24 hrs by fluorescent microscopy relative to control. Type of assay: functional.
The subject of assay [27] is SW-620. The experiment in a line: Induction of apoptosis in human SW620 cells assessed as reduction in Bcl-2 expression at 1 to 2 times IC50 after 72 hrs by immunoblot analysis relative to control. The class given is functional, cell-based.
The test system of assay [28] is HCT-116. Described as §1. The class given is functional.
For assay [29], the system named is HCT-116. Described as §2. The class given is functional.
In assay [30] the test system is HCT-116. Described as §3. Type of assay: functional.
Assay [31] concerns HCT-116. Described as §4. The class given is functional.
Assay [32] deals with SW-620. The experiment in a line: Cytotoxicity against human SW620 cells assessed as cell death at IC50 after 72 hrs by LDH release assay relative to control. Type of assay: functional.

Active and inactive are the calls of the source. The rule behind the calls is not given here.

Take `COc1ccc2c(c1OC)[C@H](CC(C)=O)N(C)c1c-2ccc2cc3c(cc12)OCO3`: the Activity in assay [1] is recorded as 65%; in the assay with SW-620 [8], 34%; in the assay on SW-620 [10], 27%; with SW-620 [21], 65%; in the assay on HCT-116 [22], 22%; with SW-620 [23], 22%. Further, the values for the Activity (in [24]; with HCT-116 [26]) were 25% and 19%, respectively. For the same compound, the figures for the “fold change (FC)” value (in the assay with SW-620 [2]; in assay [4]; in [14]) were 1.1, 1.2 and 1.3, respectively. Moreover, the outcome in the assay on SW-620 [3], with SW-620 [5], in the assay with HCT-116 [6], in the assay on HCT-116 [7], in the assay on SW-620 [9] and in the assay on HCT-116 [11] was Active. In addition, the result in the assay with SW-620 [12], in the assay on HCT-116 [16], in the assay with HCT-116 [17], with SW-620 [18], with SW-620 [19] and in the assay on HCT-116 [20] was Active. Further, the result in the assay with HCT-116 [25] and in the assay on SW-620 [27] was Active. Also, the half-maximal inhibitory concentration (IC50) (in general, the concentration needed to halve the response being measured) in assay [13] came to 2.4 µM; in the assay with SW-620 [15], 3.8 µM.
On to `O=c1[nH]cc(F)c(=O)[nH]1` [FLUOROURACIL], for which the outcome in the assay with HCT-116 [28], in the assay with HCT-116 [29], in the assay with SW-620 [8], in the assay with HCT-116 [30], in the assay with SW-620 [21] and in the assay on HCT-116 [31] was Active. Besides, the “fold change (FC)” value was determined as 1.9 in the assay with SW-620 [2] and 1.1 with SW-620 [32]. Further, the Activity in the assay with SW-620 [10] was 13%; in the assay on HCT-116 [22], less than 10%. The results for the IC50 (in [13]; in the assay on SW-620 [15]) were 0.5 µM and 5.3 µM, respectively.
